Assay results taken from US20170007615A1, “Antibacterial Compounds” (priority 2014, published 2017).
Converted amounts (≈) assume the structure as drawn. Read-outs that look alike come from different tables or passages of the source. Positions of bridges follow the written chain, without caps; N, C: chain ends. Non-standard residues stand in square brackets, D forms with d. Residues, ends and D or L forms follow the SMILES beside them. *: point of attachment. Ileψ(thiazoline)Cys = CC[C@H](C)[C@H](N)C1=N[C@H](C(=O)*)CS1; dOrn = NCCC[C@@H](N)C(=O)O

Columns and labels:
[1] = tested on: E. coli (ATCC 25922); assay: microbe, parasite or virus in culture; conditions: Escherichia coli
[2] = tested on: E. coli (ATCC 25922); conditions: for MIC of Compound (μg/ml) in the presence of PMBN (32 μg/ml): (b) No significant effect; for MIC of Compound (μg/ml) in the presence of PMBN (128 μg/ml): Table 1, (b) No effect
[3] = ATCC25922, read-out: MIC Compound alone, Table 12
[4] = ATCC25922, read-out: MIC Compound alone, Table 1

MIC of Compound (μg/ml) in the presence of PMBN (32 μg/ml) ([2]; Table 12) | MIC [1, 4] | MIC of Compound (μg/ml) in the presence of PMBN (128 μg/ml) [2] | Compound | also measured
8 µg/mL | – | – | CC1(C)S[C@@H]2[C@H](NC(=O)[C@H](N)c3ccc(O)cc3)C(=O)N2[C@H]1C(=O)O [Amoxicillin, reference compound] | MIC [1, 3]: 32 µg/mL (≈ 87.6 µM)
32^(b) μg/ml | – | – | CC1(C)S[C@@H]2[C@H](NC(=O)C(C(=O)O)c3ccccc3)C(=O)N2[C@H]1C(=O)O (stereo partly drawn) [Carbenicillin, reference compound] | MIC [1, 3]: 64 µg/mL (≈ 169 µM)
0.15 µg/mL | – | – | CC(C)(O/N=C(\C(=O)N[C@@H]1C(=O)N2C(C(=O)[O-])=C(C[n+]3ccccc3)CS[C@H]12)c1csc(N)n1)C(=O)O [Ceftazidime, reference compound] | MIC [1, 3]: 0.6 µg/mL (≈ 1.1 µM)
0.06^(b) μg/ml | – | – | CO/N=C(\C(=O)N[C@@H]1C(=O)N2C(C(=O)O)=C(CSc3nc(=O)c(=O)[nH]n3C)CS[C@H]12)c1csc(N)n1 [Ceftriaxone, reference compound] | MIC [1, 3]: 0.06 µg/mL (≈ 0.108 µM)
1 µg/mL | – | – | O=C(N[C@H](CO)[C@H](O)c1ccc([N+](=O)[O-])cc1)C(Cl)Cl [Chloramphenicol, reference compound] | MIC [1, 3]: 4 µg/mL (≈ 12.4 µM)
– | > 64 µg/mL | 0.12 µg/mL | CCNC(=O)Nc1nc2cc(-c3cnc(NC(=O)N4CC[C@@H](O)C4)nc3)cc(-c3ccc(C)cn3)c2s1 [Compound A-1, (3R)—N-[5-[2-(Ethylcarbamoylamino)-7-(5-methyl-2-pyridyl)-1,3-benzothiazol-5-yl]pyrimidin-2-yl]-3-hydroxy-pyrrolidine-1-carboxamide] | –
– | > 64 µg/mL | <=.12 μg/ml | CCNC(=O)Nc1nc2cc(-c3cc(C)n(Cc4cccc(C)n4)c(=O)c3)cc(-c3ccccn3)c2s1 [Compound A-2, 1-Ethyl-3-[5-[2-methyl-1-[(6-methyl-2-pyridyl)methyl]-6-oxo-4-pyridyl]-7-(2-pyridyl)-1,3-benzothiazol-2-yl]urea] | –
– | > 64 µg/mL | <=1 μg/ml | CCNC(=O)Nc1nc2cc(-n3cnc(C)c3)cc(-c3ccccn3)c2s1 [Compound A-3, 1-Ethyl-3-[5-(4-methylimidazol-1-yl)-7-(2-pyridyl)-1,3-benzothiazol-2-yl]urea] | MIC ([1]; ATCC25922, read-out: MIC Compound alone, Table 2): > 64 µg/mL; MIC ([1]; ATCC25922, read-out: MIC Compound alone, Table 3): > 64 µg/mL; MIC of Compound (μg/ml) in the presence of Colistin (1 μg/ml) ([2]; Table 2, colistin sub-inhibitory): ≦1 μg/ml; MIC of Compound (μg/ml) in the presence of PMB (0.5 μg/ml) ([2]; Table 3, PMB sub-inhibitory): ≦1 μg/ml
– | > 64 µg/mL | 0.5 µg/mL | CCNC(=O)Nc1nc2cc(-c3cc(C)n(C(C)c4ccc(C)nc4)c(=O)c3)cc(-c3ccccn3)c2s1 (stereo not drawn) [Compound A-4, 1-Ethyl-3-[5-[2-methyl-1-[1-(6-methyl-3-pyridyl)ethyl]-6-oxo-4-pyridyl]-7-(2-pyridyl)-1,3-benzothiazol-2-yl]urea] | –
– | > 64 µg/mL | 0.008 µg/mL | CCNC(=O)Nc1nc2cc(-c3cnc(NC(=O)OC)nc3)cc(-c3ccccn3)c2s1 [Compound A-5, Methyl N-[5-[2-(ethylcarbamoylamino)-7-(2-pyridyl)-1,3-benzothiazol-5-yl]pyrimidin-2-yl]carbamate] | –
– | > 64 µg/mL | 0.25 µg/mL | CCNC(=O)Nc1nc2cc(-c3cnc(NC(=O)N4CCCC4)nc3)cc(-c3cc(CN4CCOCC4)ccn3)c2s1 [Compound A-6, N-[5-[2-(Ethylcarbamoylamino)-7-[4-(morpholinomethyl)-2-pyridyl]-1,3-benzothiazol-5-yl]pyrimidin-2-yl]pyrrolidine-1-carboxamide] | –
– | 32 µg/mL (≈ 85.7 µM) | 4 µg/mL | CCNC(=O)Nc1nc2cc(-c3cnc(C(C)(O)CO)nc3)ccc2s1 (stereo not drawn) [Compound A-7, 1-[5-[2-(1,2-Dihydroxy-1-methyl-ethyl)pyrimidin-5-yl]-1,3-benzothiazol-2-yl]-3-ethyl-urea] | –
– | 32 µg/mL (≈ 82.6 µM) | 2 µg/mL | CCNC(=O)Nc1nc2cc(-c3cnc(C(C)(O)CO)nc3)cc(C)c2s1 (stereo not drawn) [Compound A-9, 1-[5-[2-(1,2-Dihydroxy-1-methyl-ethyl)pyrimidin-5-yl]-7-methyl-1,3-benzothiazol-2-yl]-3-ethyl-urea] | –
– | > 64 µg/mL | 0.25 µg/mL | CCNC(=O)Nc1nc2cc(-c3cnc(NS(=O)(=O)CC(=O)OC)nc3)cc(-c3ccc(C)cn3)c2s1 [Compound A-16, Methyl 2-[[5-[2-(ethylcarbamoylamino)-7-(5-methyl-2-pyridyl)-1,3-benzothiazol-5-yl]pyrimidin-2-yl]sulfamoyl]acetate] | –
– | 2 µg/mL (≈ 3.92 µM) | 0.03 µg/mL | C=CCS(=O)(=O)Nc1ncc(-c2cc(-c3ccc(C)cn3)c3sc(NC(=O)NCC)nc3c2)cn1 [Compound A-17, 1-[5-[2-(allylsulfonylamino)pyrimidin-5-yl]-7-(5-methyl-2-pyridyl)-1,3-benzothiazol-2-yl]-3-ethyl-urea] | –
– | > 64 µg/mL | 0.12 µg/mL | CCNC(=O)Nc1nc2cc(-c3cnc(NS(=O)(=O)C(C)(C)C)nc3)cc(-c3cnc(N(C)C)nc3)c2s1 [Compound A-18, 1-[5-[2-(tert-butylsulfonylamino)pyrimidin-5-yl]-7-[2-(dimethylamino)pyrimidin-5-yl]-1,3-benzothiazol-2-yl]-3-ethyl-urea] | –
– | > 64 µg/mL | <=.12 μg/ml | CCNC(=O)Nc1nc2cc(-c3cnc(CNS(C)(=O)=O)nc3)cc(-c3ccc(C)cn3)c2s1 [Compound A-19, 1-ethyl-3-[5-[2-(methanesulfonamidomethyl)pyrimidin-5-yl]-7-(5-methyl-2-pyridyl)-1,3-benzothiazol-2-yl]urea] | –
– | > 64 µg/mL | 32 µg/mL | CCNC(=O)Nc1nc2cc(-c3cnc(NS(=O)(=O)C(C)(C)C)nc3)cc(N3CCN(CCN4CCCC4)CC3)c2s1 [Compound A-20, 1-[5-[2-(tert-butylsulfonylamino)pyrimidin-5-yl]-7-[4-(2-pyrrolidin-1-ylethyl)piperazin-1-yl]-1,3-benzothiazol-2-yl]-3-ethyl-urea] | –
– | 8 µg/mL (≈ 23.6 µM) | 0.5 µg/mL | CCNC(=O)Nc1nc2cc(-c3cccnc3)cc(C(=O)OC)c2[nH]1 [Compound A-22, Methyl 2-(ethylcarbamoylamino)-6-(3-pyridyl)-3H-benzimidazole-4-carboxylate, reference compound] | –
– | 1 µg/mL (≈ 2.55 µM) | 0.06 µg/mL | CNc1cc(F)cc2c1[nH]c1nc(Oc3ccc(C)nc3)nc(N3CCCC3)c12 [Compound A-23, 6-Fluoro-N-methyl-2-[(6-methyl-3-pyridyl)oxy]-4-pyrrolidin-1-yl-9H-pyrimido[4,5-b]indol-8-amine, reference compound] | –
– | > 64 µg/mL | 2 µg/mL | CCNC(=O)Nc1nc2c(-c3ccc(C)cn3)cc(-c3cnc(NS(=O)(=O)C(C)(C)C)nc3)cn2n1 [Compound A-101, 1-[6-[2-(tert-butylsulfonylamino)pyrimidin-5-yl]-8-(5-methyl-2-pyridyl)-[1,2,4]triazolo[1,5-a]pyridin-2-yl]-3-ethyl-urea] | –
– | > 64 µg/mL | 2 µg/mL | CC(C)(C)S(=O)(=O)Nc1ncc(-c2cc(Br)c3sc(N)nc3c2)cn1 [Compound A-102, N-[5-(2-amino-7-bromo-1,3-benzothiazol-5-yl)pyrimidin-2-yl]-2-methyl-propane-2-sulfonamide] | –
0.03^(b) μg/ml | – | – | CCn1cc(C(=O)O)c(=O)c2cc(F)c(N3CCNCC3)nc21 [Enoxacin, reference compound] | MIC [1, 3]: 0.06 µg/mL (≈ 0.187 µM)
– | > 64 µg/mL | 0.5 µg/mL | CCNC(=O)Nc1nc2cc(-c3cnc(N4CCC(C)(C(=O)O)CC4)nc3)cc(-c3ccccn3)c2s1 [Example 1 (WO2012/045124), 1-[5-[2-(ethylcarbamoylamino)-7-(2-pyridyl)-1,3-benzothiazol-5-yl]pyrimidin-2-yl]-4-methyl-piperidine-4-carboxylic acid] | –
– | > 64 µg/mL | 8 µg/mL | CCNC(=O)Nc1nc2cc(-c3cccnc3)ccc2s1 [Example 1 Compound VI(a) (WO2009/074812), 1-ethyl-3-(5-pyridin-3-yl-benzothiazol-2-yl)-urea] | –
– | > 64 µg/mL | 0.5 µg/mL | CCNC(=O)Nc1nc2cc(-c3cnc(C(C)(C)O)nc3)cc(-c3cc(CN4CCOCC4)ccn3)c2s1 [Example 28 (WO2013/138860), 1-ethyl-3-[5-[2-(1-hydroxy-1-methyl-ethyl)pyrimidin-5-yl]-7-[4-(morpholinomethyl)-2-pyridyl]-1,3-benzothiazol-2-yl]urea] | –
– | – | – | Polymyxin B [PMB, reference compound] | MIC PMB alone ([2]; Table 3): 1 µg/mL

Compound | MIC of Compound (μg/ml) in the presence of PMBN (32 μg/ml) ([2]; Table 12) | MIC [1, 4] | MIC of Compound (μg/ml) in the presence of PMBN (128 μg/ml) [2] | also measured
CC[C@H](C)[C@H](N)C1=N[C@H](C(=O)N[C@@H](CC(C)C)C(=O)N[C@H](CCC(=O)O)C(=O)N[C@H](C(=O)N[C@H]2CCCCNC(=O)[C@H](CC(N)=O)NC(=O)[C@@H](CC(=O)O)NC(=O)[C@H](Cc3cnc[nH]3)NC(=O)[C@@H](Cc3ccccc3)NC(=O)[C@H]([C@@H](C)CC)NC(=O)[C@@H](CCCN)NC2=O)[C@@H](C)CC)CS1 [Bacitracin, reference compound] ({Ileψ(thiazoline)Cys}-L[dE]IK[dOrn]I[dF]H[dD]N; lactam 4-C) | >64^(b) μg/ml | – | – | MIC Compound alone ([2]; ATCC 25922): >64 µg/mL
CN(C)c1cc(NC(=O)CNC(C)(C)C)c(O)c2c1C[C@H]1C[C@H]3[C@H](N(C)C)C(O)=C(C(N)=O)C(=O)[C@@]3(O)C(O)=C1C2=O [Tigecyclin, reference compound] | ≦0.25^(b) μg/ml | – | – | MIC Compound alone ([2]; Table 12): ≦0.25 μg/ml
Gentamicin [reference compound] | 8^(b) μg/ml | – | – | MIC Compound alone ([2]; Table 12): 8 µg/mL
